Laboratory results reported in publication PMC5457661, “Dysregulation of lysophosphatidic acids in multiple sclerosis and autoimmune encephalomyelitis” (Acta Neuropathologica Communications, 2017).
Entries after “also recorded” stand apart in the source; their conditions may differ. Where two headings read alike, the source gives them in different places. Each block holds one molecule with its values, some of them ahead of it.

Assays:
[1] = target: T1, autotaxin (Mus musculus, UniProt Q9R1E6); assay: LPA plasma concentration in naïve mice after autotaxin inhibitor; type: in vivo; settings: i.p. 30 min before plasma sampling
T1 construct: from tissue; host or cells: living naïve mice, plasma sampled
Description: Quantitative LPA analysis was performed with liquid chromatography-electrospray ionization-tandem mass spectrometry (LC-ESI-MS/MS) with a hybrid triple quadrupole-ion trap QTrap 5500 mass spectrometer (AB Sciex, Germany) as described without knowledge of clinical data or treatment groups. Briefly, 2 cycles of liquid-liquid extraction of LPAs were done with 1-buthanol after adding the internal standard LPA17:0 (50 μl sample, 20 μl internal standard in 500 μl 1-butanol). The combined organic phases were dried under a gentle stream of nitrogen at 45 °C and subsequently re-dissolved in 200 μl methanol. A C18 column (Mercury 20 x 2 mm, 3 μm, 100 Å) and precolumn were used for chromatographic separation. A linear gradient was employed at a flow rate of 400 μl/min. Mobile phase A was water with ammonium formate 50 mM and formic acid (100:0.2, v/v) and mobile phase B acetonitrile/formic acid (100:0.1, v/v). The mass spectrometer operated in the negative ion mode and used multiple reaction monitoring (MRM). The mass transitions were m/z 409 → 79 (LPA 16:0), m/z 437 → 153 (LPA 18:0), m/z 431 → 79 (LPA 18:3) and m/z 457 → 153 (LPA 20:4) all with a dwell time of 50 ms. The internal standard method was used for quantification with Analyst Software V1.5 (Applied Biosystems, Germany). The calibration curve was linear over the range of 0.1–500 ng/ml and accuracy was >95%.

[2] = test system: serum LPAs; assay: Serum LPA concentrations (LC-MS/MS) in medication subgroups of MS patients; type: in vivo, human; settings: MS patients on prophylactic treatment vs no medication, beta interferon or other drugs
Text: Human samples and data were available from an observational cross-sectional investigation of 102 multiple sclerosis patients (31 men, 71 women, demographic data Table 1) consecutively recruited from outpatients and inpatients of the Department of Neurology of the Goethe University Hospital Frankfurt, Germany. Data and blood collection was part of the local bio-banking project (Neurological Department of the Goethe University, Frankfurt), adhered to the Declaration of Helsinki and was approved by the Ethics Committees of the Medical Faculty of the Goethe University. Cerebrospinal fluid samples were available from a previous study including 20 MS patients and 10 control patients with other non-inflammatory neurologic diseases. For long-term time course analyses additional 15 patients were recruited and observed up to 3.5 years. […]
(§1) Quantitative LPA analysis was performed with liquid chromatography-electrospray ionization-tandem mass spectrometry (LC-ESI-MS/MS) with a hybrid triple quadrupole-ion trap QTrap 5500 mass spectrometer (AB Sciex, Germany) as described without knowledge of clinical data or treatment groups. […] The internal standard method was used for quantification with Analyst Software V1.5 (Applied Biosystems, Germany). […]

[3] = test system: serum LPAs; assay: Serum LPA concentrations (LC-MS/MS) in treated SJL/J EAE mice; type: in vivo; settings: 35 days after immunization, vs vehicle treated EAE mice
Description: Female SJL/J mice (Envigo, Germany), aged 10–12 weeks at immunization were used for study of relapsing-remitting EAE and female TCR^1640 mice for spontaneous RR-EAE [45]. Female C57BL6/J mice and LPAR2^−/− mice and LPAR2^+/+ littermates were used for the study of primary progressive EAE. LPAR2^−/− mice have a mixed C57BL6/J x Sv129 background with about 25% Sv129. Mice were housed at 3–5 mice per cage at constant room temperature (21 ± 1 °C) under a regular 12 h light/dark schedule. Food and water were available ad libitum. Animals were treated orally via the drinking water with FTY720 (fingolimod) at 0.5 mg/kg/d starting 3 days after immunization for preventive treatment. […] Oral bioavailability (F) of the LPAR2 agonist and basic kinetics were assessed by LC-MS/MS analysis of plasma concentrations. […] AUCs were calculated according to the linear trapezoidal rule. The clearance was calculated as Cl = Dose*F/AUCs and the half-life, t1/2 = ln2/λ, where λ is the terminal decay constant. […]
as §1

[4] = test system: autotaxin; design: method as in PMID 19215222; settings: cited from earlier work
[5] = test system: RR-EAE SJL/J mice; assay: Relapsing-remitting EAE (PLP139-151/CFA/PTX immunization), clinical scores, body weight, spinal cord immunofluorescence; type: in vivo
Description: (§2) Female SJL/J mice (Envigo, Germany), aged 10–12 weeks at immunization were used for study of relapsing-remitting EAE and female TCR^1640 mice for spontaneous RR-EAE [45]. Female C57BL6/J mice and LPAR2^−/− mice and LPAR2^+/+ littermates were used for the study of primary progressive EAE. LPAR2^−/− mice have a mixed C57BL6/J x Sv129 background with about 25% Sv129. Mice were housed at 3–5 mice per cage at constant room temperature (21 ± 1 °C) under a regular 12 h light/dark schedule. Food and water were available ad libitum. Animals were treated orally via the drinking water with FTY720 (fingolimod) at 0.5 mg/kg/d starting 3 days after immunization for preventive treatment. Monoclonal anti-Itga4 antibody treatment (natalizumab) in SJL/J mice consisted in 3 intraperitoneal injections (1x200 μg, 2x 150 μg) on day 11, 14 and 19. The LPAR2 agonist GRI 977143 was administered perorally in cornflakes soaked with 10% sucrose/10% DMSO in water with 100 μg/mouse/d of the drug starting 3d after immunization. Control animals received the respective vehicle. Oral bioavailability (F) of the LPAR2 agonist and basic kinetics were assessed by LC-MS/MS analysis of plasma concentrations. Tmax and Cmax were directly taken from the plasma concentration time courses. AUCs were calculated according to the linear trapezoidal rule. The clearance was calculated as Cl = Dose*F/AUCs and the half-life, t1/2 = ln2/λ, where λ is the terminal decay constant.
C57BL6/J and LPAR2 mice were immunized according to a standard protocol using the Hooke Kit™ MOG35-55/CFA emulsion PTX (EK-2110, Hooke Labs, St Lawrence, MA), which contains 200 μg myelin oligodendrocyte glycoprotein (MOG) 35–55 emulsified in 200 μl Complete Freund’s Adjuvant (CFA). The emulsion was injected subcutaneously at two sites followed by two intraperitoneal (i.p.) injections of 200 ng pertussis toxin (PTX) in phosphate buffered saline (PBS), the first 1–2 h after MOG35-55, and the second 24 h later. SJL mice were immunized using Hooke Kit™ PLP139-151/CFA emulsion PTX (EK-2120), which contains 200 μg myelin proteolipid protein (PLP) 139–151 in 200 μl CFA (Hooke Labs, US). Injections of the emulsion and PTX were done as described for C57BL6 mice.
EAE scores were assessed daily to evaluate the severity and extent of motor function deficits. Score 0, normal motor functions; score 0.5, distal paralysis of the tail; score 1, complete tail paralysis; score 1.5, mild paresis of one or both hind legs; score 2, severe paresis of hind legs; score 2.5, complete paralysis of one hind leg; score 3, complete paralysis of both hind legs; score 3.5, complete paralysis of hind legs and paresis of one front leg. Serum and tissues were sampled after the second peak, 35–36 days after immunization.
Mice were terminally anaesthetized with isoflurane and cardially perfused with cold 0.9% NaCl, followed by 4% paraformaldehyde (PFA) in 1x PBS for fixation. […]
Tiled images of individual sections were captured with equal filter and acquisition parameters to assure comparability independent of genotype or treatment and subsequently stitched to cover the complete ventral horn of the spinal cord. Iba1+ and CD11b + microglia/macrophages in the gray matter and white matter were quantified using the particle counter plugin of FIJI ImageJ. […] Three or more non-overlapping images of 3 mice were analyzed per group.

[6] = test system: LPAR1, 2, 3 or 4; assay: LPA receptor activation panel in COS cells with heterologous expression of LPAR1, 2, 3 or 4 plus Gα15, mock controls; type: cell-based, human; settings: for LPAR activation (agonist activity): calcium transient AUC, all heterologously expressed LPARs
Description: (§3) To study the activation profile of heterologously expressed LPA receptors, COS-1 cells were seeded in 96-well plates at a density of 50.000 cells/well. Next day, they were co-transfected with plasmids containing cDNA for a calcium-sensitive bioluminescent fusion protein between aequorin and GFP [3] and plasmids containing the indicated receptor cDNA or control (empty vector, mock) together with the promiscuous Gα15 [42] at a concentration of 50 ng/well by using FuGENE 6 reagent (Promega) according to manufacturer’s instructions. Forty-eight hours later, cells were loaded with 5 μM coelenterazine h (Invitrogen) in HBSS buffer containing 1.8 mM CaCl2 and 10 mM glucose for 2 h at 37 °C. Measurements were performed by using a luminometric plate reader (Flexstation 3) for 100 s following ligand stimulation. The area under each calcium transient was calculated by using SoftMaxPro software and expressed as area under the curve (AUC). The following lipids were used for stimulation: 1-Palmitoyl-LPA (LPA16:0), 1-oleoyl-LPA (LPA18:1), 1-stearoyl-LPA (LPA18:0), 1-lineoyl-LPA (LPA18:2), 1-arachidonoyl-LPA (LPA20:4). LPA16:0 and 18:1 were from Cayman, the others from AvantiPolar Lipids.

[7] = target: T2, LPAR2 (Homo sapiens, UniProt Q9HBW0); assay: LPA receptor activation, aequorin-GFP calcium luminescence in COS-1 cells co-transfected with Gα15; type: cell-based
T2 construct: plasmids containing the indicated receptor cDNA or control (empty vector, mock); expressed in transfected cells; host or cells: COS-1
Description: as §3

[8] = target: T3, LPAR1 (Homo sapiens, UniProt Q92633); assay: as above; type: cell-based; settings: compared with other LPAs
T3 construct: plasmids containing the indicated receptor cDNA or control (empty vector, mock); expressed in transfected cells; host or cells: COS-1
Description: as §3

[9] = target: T1, autotaxin; assay: Autotaxin lyso-PLD activity ex vivo in primary splenocytes (C17-LPC to C17:0-LPA conversion); type: cell-based; settings: splenocytes from treated EAE mice
Description: The spleens were removed and collected in a sterile wire mesh with 40 μm pore size over a Petri dish half filled with RPMI 1640 media and were gently pressed through the mesh using a 5 ml syringe plunger. The mesh was rinsed over the Petri dish with additional media to remove remaining cells. Disaggregated cells were transferred to a 15 ml Falcon tube and centrifuged at 2,000 rpm for 5 min and washed 2x in RPMI. The cell pellet was resuspended in RPMI, treated with erythrocyte lysis buffer for 10 min at room temperature, followed by centrifugation and resuspension in full medium (RPMI 1640 + 10% FBS + 1% Pen/Strep). Cells were plated in 6-well plates at 3x10^6/2 ml per well. Growth was stimulated with concanavalin A at 1 μg/ml. Cells were kept in an incubator at 37 °C, 95% humidity and 5% CO2 atmosphere and assays were performed after 2d in culture.
The lyso-PLD activity of ATX was measured in primary splenocytes of naïve and EAE mice. Cells were incubated for 2 h in 1.1 ml serum free RPMI 1640 medium and then stimulated for another 2 h with PMA 50 ng/ml and ionomycin 500 ng/ml in serum free medium before the autotaxin substrate, C17-LPC was added (100 μM in 1 μl in DMSO). […] C17-LPC is converted into the unnatural C17:0-LPA, which was analysed in supernatants and crude cell extracts by LC-MS/MS as described above. […]

[10] = target: T4, LPAR1, 2, 3 or 4 (Homo sapiens, UniProt Q9HBW0); assay: LPA receptor activation panel in COS cells with heterologous expression of LPAR1, 2, 3 or 4 plus Gα15, mock controls; type: cell-based; settings: COS cells with heterologous expression of LPAR1, 2, 3 or 4
T4 construct: expressed in transfected cells; host or cells: COS-1
Description: as §3

[11] = Plasma concentration time courses and basic pharmacokinetics of the LPAR2 agonist (LC-MS/MS); type: in vivo, SJL/J mice
Description: as §2

[12] = target: T2, LPAR2; design: method as in not given; settings: reported value; ref not given; cited from earlier work

T2 sequence (Q9HBW0 whole entry): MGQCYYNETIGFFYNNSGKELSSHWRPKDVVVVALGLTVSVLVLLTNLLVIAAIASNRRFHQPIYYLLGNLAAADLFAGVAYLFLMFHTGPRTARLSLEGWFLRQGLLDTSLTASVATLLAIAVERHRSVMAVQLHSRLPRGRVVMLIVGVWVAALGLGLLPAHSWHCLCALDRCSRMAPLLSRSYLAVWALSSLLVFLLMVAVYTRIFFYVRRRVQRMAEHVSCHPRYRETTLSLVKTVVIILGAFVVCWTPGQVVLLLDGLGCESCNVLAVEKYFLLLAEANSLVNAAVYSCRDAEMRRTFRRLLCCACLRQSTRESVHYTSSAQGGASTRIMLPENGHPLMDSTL
T3 sequence (Q92633 whole entry): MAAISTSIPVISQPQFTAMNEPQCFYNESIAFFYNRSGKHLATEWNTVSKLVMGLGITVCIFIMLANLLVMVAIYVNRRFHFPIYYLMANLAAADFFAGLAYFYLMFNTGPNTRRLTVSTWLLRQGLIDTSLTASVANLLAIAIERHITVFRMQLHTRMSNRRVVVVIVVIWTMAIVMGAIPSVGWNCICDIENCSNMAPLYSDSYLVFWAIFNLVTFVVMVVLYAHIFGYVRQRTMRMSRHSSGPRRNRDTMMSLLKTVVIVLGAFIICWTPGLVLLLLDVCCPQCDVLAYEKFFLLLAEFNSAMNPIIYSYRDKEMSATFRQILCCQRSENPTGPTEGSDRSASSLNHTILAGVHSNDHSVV
T4 sequence (Q9HBW0 whole entry): as the sequence (Q9HBW0 whole entry) above

Molecule: O=C(CCN1CCN(C(=O)OCc2cc(Cl)cc(Cl)c2)CC1)c1ccc2[nH]c(=O)oc2c1 [PF8380]
LPA plasma concentration [1]: mainly reduced unsaturated LPAs

Molecule: CCCCCCCCc1ccc(CCC(N)(CO)CO)cc1 [fingolimod]
LPA concentrations in serum [2]: significantly lower | LPA serum concentration [3]: additional LPA lowering effect | autotaxin inhibition [4]: slow acting autotaxin inhibitor | clinical EAE scores ([5]; fingolimod 0.5 mg/kg/day in drinking water from 3 d after immunization): only minor effects

Molecule: CCCCCCCCCCCCCCCCOC[C@@H](O)COP(=O)(O)O [hexadecyl-LPA]
LPAR activation (agonist activity) [6]: no effects

Emax ([7]; compared with other LPAs): highest Emax values | Emax [8]: highest Emax values
Molecule: CCCCCCCC/C=C\CCCCCCCC(=O)OC[C@@H](O)COP(=O)(O)O [LPA18:1, 1-oleoyl-LPA]
specificity (response of mock transduced cells) ([6]; mock-Gα15 transduced cells as control): most specific

maximum stimulation effect of PMA/Ionomycin on ATX activity [9]: significantly reduced
Molecule: natalizumab: alpha-4 integrin (VLA4) targeting monoclonal antibody
LPA concentrations in serum [2]: significantly lower | LPA serum concentration [3]: significantly lower LPA levels | clinical EAE scores ([5]; 3 i.p. injections at d11 (200 μg), d14, d19 (150 μg)): reduced the clinical scores

Molecule: CCCCCCCCCCCCCCCCCCOC[C@@H](O)COP(=O)(O)O [octadecyl-LPA]
LPAR activation (agonist activity) [6]: no effects

LPAR2 specificity [10]: confirmed the LPAR2 specificity | EC50 ([7]; LPAR2 agonist, COS-1 cells): ~1 µM | AUC ([11]; calculated from i.p. data): 4.26 µg·h/mL | CL ([11]; calculated from i.p. data): 23.5 mL/h | Vd ([11]; calculated from i.p. data): 27.3 mL | Tmax ([11]; plasma, after i.p. administration, SJL/J mice): 10 min
Molecule: O=C(O)c1ccccc1SCCCN1C(=O)c2cccc3cccc(c23)C1=O [GRI 977143]
EC50 [12]: 1 to 3 µM | clinical EAE scores ([5]; 100 μg/mouse/d p.o. starting 3 d after immunization up to 35 d, vs vehicle): significantly lower clinical EAE scores | body weight ([5]; 100 μg/mouse/d p.o. starting 3 d after immunization, vs vehicle): therapeutic efficacy was also evident | infiltration of the white matter of the lumbar spinal cord with myeloid cells (CD11b positive particles) ([5]; 100 μg/mouse/d p.o., 36 days after immunization, vs vehicle): much reduced; also recorded: significantly reduced
